Experiment in all cases: KinomeScan profiling
Format in all cases: binding

Assay [1] deals with FGR (Homo sapiens, UniProt P09769). Conditions: read-out: % control. Put shortly:
(§1)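 Single-point competition binding screen: 1 μM, DMSO, 468 kinases. Results reported as % control from RLU, normalised to DMSO and positive-control wells. Activity threshold: <35% control.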

In assay [2] the target is T1, PIK3CA (Homo sapiens, UniProt P42336).
T1 construct: purchased KinomeScan® (panel service)
Conditions: read-out: % control. In outline:
as §1

Assay [3] concerns the target T2, CDKL2 (Homo sapiens, UniProt Q92772).
T2 sequence (Q92772 1-493): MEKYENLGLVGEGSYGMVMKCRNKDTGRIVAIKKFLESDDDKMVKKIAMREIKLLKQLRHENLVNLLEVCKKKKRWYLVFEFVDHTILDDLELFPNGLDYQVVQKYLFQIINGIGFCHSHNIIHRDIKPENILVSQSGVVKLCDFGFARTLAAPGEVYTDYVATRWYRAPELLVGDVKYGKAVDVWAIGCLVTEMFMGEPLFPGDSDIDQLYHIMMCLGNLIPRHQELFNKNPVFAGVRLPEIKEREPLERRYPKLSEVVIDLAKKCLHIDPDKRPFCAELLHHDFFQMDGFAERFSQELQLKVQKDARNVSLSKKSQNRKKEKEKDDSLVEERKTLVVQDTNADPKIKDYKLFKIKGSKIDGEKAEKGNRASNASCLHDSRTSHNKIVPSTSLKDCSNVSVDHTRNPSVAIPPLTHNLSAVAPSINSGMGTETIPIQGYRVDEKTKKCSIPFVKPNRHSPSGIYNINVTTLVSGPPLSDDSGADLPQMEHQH
Particulars: CDKL2, 1 μM; read-out: % control. In outline: as §1

Assay [4] concerns the target T3, RSK4(Kin.Dom.2-C-terminal) (Homo sapiens, UniProt Q9UK32).
T3 construct: RSK4(Kin.Dom.2-C-terminal)
T3 sequence (Q9UK32 426-683 limits assumed): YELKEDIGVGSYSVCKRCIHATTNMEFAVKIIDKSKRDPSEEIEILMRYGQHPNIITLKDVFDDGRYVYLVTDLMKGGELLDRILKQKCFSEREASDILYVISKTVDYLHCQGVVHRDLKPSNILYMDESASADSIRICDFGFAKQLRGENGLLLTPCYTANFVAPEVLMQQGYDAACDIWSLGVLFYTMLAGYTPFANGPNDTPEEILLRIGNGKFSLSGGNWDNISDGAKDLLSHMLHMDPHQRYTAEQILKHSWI
Particulars: read-out: % control. In outline: as §1

Assay [5] addresses T4, HASPIN (Homo sapiens, UniProt Q8TF76).
T4 sequence (Q8TF76 1-798): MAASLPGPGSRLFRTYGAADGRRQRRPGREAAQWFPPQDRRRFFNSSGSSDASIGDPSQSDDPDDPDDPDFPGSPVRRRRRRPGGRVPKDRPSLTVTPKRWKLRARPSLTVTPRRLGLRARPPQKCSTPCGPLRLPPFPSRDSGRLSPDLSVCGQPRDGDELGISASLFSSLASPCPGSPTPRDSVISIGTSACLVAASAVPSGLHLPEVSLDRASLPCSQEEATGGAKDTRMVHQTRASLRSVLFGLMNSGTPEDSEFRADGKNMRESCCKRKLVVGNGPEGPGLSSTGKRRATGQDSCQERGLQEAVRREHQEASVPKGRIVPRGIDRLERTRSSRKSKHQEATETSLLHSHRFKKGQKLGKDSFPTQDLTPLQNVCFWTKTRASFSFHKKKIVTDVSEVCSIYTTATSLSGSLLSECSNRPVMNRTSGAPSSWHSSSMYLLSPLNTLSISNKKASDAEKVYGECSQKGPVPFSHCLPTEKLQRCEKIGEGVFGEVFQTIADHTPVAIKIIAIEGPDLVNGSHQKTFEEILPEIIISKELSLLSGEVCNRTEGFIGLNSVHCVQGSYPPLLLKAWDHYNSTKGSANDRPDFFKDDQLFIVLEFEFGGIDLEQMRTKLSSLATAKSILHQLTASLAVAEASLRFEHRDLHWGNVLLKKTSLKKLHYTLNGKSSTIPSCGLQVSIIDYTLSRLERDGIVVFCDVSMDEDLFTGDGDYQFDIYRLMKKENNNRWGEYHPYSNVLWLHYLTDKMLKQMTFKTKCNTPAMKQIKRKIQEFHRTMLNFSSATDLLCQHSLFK
Particulars: read-out: % control. In outline: as §1

This is an account of results in patent US12275731B2, “Azaindole inhibitors of wild-type and mutant forms of LRRK2” (DANA-FARBER CANCER INSTITUTE, INC., priority 2018, dated 2025).

FGR, sequence (P09769 whole entry): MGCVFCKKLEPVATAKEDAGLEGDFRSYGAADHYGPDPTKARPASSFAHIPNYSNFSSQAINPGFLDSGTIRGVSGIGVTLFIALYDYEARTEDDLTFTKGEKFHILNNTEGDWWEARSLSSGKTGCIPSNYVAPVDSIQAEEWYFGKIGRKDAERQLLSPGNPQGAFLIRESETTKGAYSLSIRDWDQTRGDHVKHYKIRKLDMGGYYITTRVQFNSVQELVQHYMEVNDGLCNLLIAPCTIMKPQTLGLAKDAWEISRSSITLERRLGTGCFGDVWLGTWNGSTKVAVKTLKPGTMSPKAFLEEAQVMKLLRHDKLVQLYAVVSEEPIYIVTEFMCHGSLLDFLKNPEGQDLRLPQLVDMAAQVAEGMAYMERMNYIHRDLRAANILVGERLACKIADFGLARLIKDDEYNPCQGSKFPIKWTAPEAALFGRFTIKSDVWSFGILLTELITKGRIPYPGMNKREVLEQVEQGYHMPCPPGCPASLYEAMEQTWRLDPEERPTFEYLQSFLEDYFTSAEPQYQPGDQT
T1 sequence (P42336 whole entry): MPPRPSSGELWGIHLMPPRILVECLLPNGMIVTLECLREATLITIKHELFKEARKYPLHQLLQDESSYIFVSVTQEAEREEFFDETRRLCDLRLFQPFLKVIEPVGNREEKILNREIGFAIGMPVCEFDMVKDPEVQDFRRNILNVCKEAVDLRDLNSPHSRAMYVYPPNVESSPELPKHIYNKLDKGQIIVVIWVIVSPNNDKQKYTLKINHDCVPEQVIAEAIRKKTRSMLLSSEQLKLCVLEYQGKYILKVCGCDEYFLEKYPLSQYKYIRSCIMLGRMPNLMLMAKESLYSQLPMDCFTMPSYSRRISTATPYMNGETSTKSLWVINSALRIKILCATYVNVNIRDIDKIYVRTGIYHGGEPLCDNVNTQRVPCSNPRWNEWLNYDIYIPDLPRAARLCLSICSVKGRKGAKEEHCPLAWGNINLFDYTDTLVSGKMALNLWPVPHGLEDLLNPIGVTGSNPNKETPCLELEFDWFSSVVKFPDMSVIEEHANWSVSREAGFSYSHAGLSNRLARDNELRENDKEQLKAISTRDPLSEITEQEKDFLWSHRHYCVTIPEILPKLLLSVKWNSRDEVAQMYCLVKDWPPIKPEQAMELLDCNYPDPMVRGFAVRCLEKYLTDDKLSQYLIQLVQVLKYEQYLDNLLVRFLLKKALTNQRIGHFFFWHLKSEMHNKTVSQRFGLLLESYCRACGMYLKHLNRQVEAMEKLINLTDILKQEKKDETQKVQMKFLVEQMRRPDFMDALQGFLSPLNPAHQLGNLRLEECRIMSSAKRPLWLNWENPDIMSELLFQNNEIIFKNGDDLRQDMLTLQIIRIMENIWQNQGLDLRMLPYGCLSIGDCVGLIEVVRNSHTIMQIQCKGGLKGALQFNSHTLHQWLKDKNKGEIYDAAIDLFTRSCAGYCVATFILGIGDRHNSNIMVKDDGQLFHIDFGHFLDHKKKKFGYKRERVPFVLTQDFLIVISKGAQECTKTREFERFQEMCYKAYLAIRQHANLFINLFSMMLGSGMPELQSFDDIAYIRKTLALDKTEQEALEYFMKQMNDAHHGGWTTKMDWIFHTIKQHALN

In the case of `CNc1c(-c2ccc(C(=O)N3CCC(N4CCOCC4)CC3)cc2)cnc2[nH]cc(Cl)c12` [Compound 96, (4-(3-chloro-4-(methylamino)-1H-pyrrolo[2,3-b]pyridin-5-yl)phenyl)(4-morpholinopiperidin-1-yl)methanone], the remaining binding at 1 µM in assay [1] was determined as 95%; in assay [2], 100%; in assay [3], 97%; in assay [4] it was 91%; in assay [5], 1.3%.

As for `O=C(c1ccc(-c2cnc3[nH]cc(Cl)c3c2NC2CCCC2)cc1)N1CCC(N2CCOCC2)CC1` [Compound 101, (4-(3-chloro-4-(cyclopentylamino)-1H-pyrrolo[2,3-b]pyridin-5-yl)phenyl)(4-morpholinopiperidin-1-yl)methanone], the remaining binding at 1 µM in assay [1] was 94%; in assay [2] it was 99%; in assay [3], 100%; in assay [4], 88%; in assay [5], 22%.

For the compound `CNc1c(-c2cnn([C@H]3CCN(C(C)=O)C[C@@H]3F)c2)cnc2[nH]cc(Cl)c12` [Compound 77, 1-((3S,4S)-4-(4-(3-chloro-4-(methylamino)-1H-pyrrolo[2,3-b]pyridin-5-yl)-1H-pyrazol-1-yl)-3-fluoropiperidin-1-yl)ethan-1-one], the remaining binding at 1 µM is 80% in assay [1]; 100% in assay [2]; 95% in assay [3]; 98% in assay [4]; 9.8% in assay [5].
